In patent US11459324B2, “O-glycoprotein-2-acetamido-2-deoxy-3-D-glycopyranosidase inhibitors” (BIOGEN MA INC., priority 2018, dated 2022):

Biological target: T1, Recombinant full length human OGA enzyme (Homo sapiens, UniProt O60502)
T1 construct: Recombinant full length human OGA enzyme was purchased from Origene; purchased Origene
T1 sequence (O60502 1-916): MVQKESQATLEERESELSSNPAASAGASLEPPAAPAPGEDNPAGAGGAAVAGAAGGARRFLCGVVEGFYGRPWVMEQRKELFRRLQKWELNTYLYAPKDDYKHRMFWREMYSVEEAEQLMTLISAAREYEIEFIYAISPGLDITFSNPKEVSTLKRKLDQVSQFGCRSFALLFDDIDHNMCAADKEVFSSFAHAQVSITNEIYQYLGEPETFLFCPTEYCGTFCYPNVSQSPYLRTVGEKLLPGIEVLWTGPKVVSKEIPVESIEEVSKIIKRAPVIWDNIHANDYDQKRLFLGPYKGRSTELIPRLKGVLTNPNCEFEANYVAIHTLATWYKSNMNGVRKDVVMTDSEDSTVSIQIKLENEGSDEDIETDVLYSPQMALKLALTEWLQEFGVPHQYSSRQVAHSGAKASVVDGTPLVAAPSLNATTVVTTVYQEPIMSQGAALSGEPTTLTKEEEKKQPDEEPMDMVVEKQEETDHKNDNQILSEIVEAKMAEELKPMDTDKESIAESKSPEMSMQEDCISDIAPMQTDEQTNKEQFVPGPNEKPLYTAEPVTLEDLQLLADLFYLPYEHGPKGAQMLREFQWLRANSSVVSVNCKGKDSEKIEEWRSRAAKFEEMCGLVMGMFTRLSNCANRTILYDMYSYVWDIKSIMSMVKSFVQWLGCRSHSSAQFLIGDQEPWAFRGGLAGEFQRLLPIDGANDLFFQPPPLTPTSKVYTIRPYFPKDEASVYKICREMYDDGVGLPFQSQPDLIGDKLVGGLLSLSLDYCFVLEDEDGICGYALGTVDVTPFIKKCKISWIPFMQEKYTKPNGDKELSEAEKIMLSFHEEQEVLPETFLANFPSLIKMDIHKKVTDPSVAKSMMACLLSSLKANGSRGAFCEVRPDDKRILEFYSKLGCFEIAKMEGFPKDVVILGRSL
Assay: OGA Enzyme Inhibition Biochemical Assay
Conditions: 1 nM OGA, 100 μM 4-MUGlcNAc (Km), pH 6.4, 90 minutes at room temperature, 10-point dose-response from 20 μM
Procedure, shortened: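 Full-length human OGA at 1 nM with 100 μM 4-MUGlcNAc (Km) in McIlvaine buffer pH 6.4 plus 0.01% BSA, 90 min at room temperature, then glycine pH 10 quench. Fluorescence read at Ex 355/Em 460 nm. 10-point, 4-fold dose-response from 20 μM, 4-parameter variable-slope fit.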

SMILES | IC50
COc1nccc(CC2CCCN(Cc3cnc(NC(C)=O)s3)C2)c1C (stereo not shown) [Example 2-3, N-(5-((3-((2-methoxy-3-methylpyridin-4-yl)methyl)piperidin-1-yl)methyl)thiazol-2-yl)acetamide] | 0.002 µM
CC(=O)Nc1ncc(CN2C[C@H](Cc3ncc(F)cn3)CC[C@@H]2C)s1 (single isomer, unassigned) [Example 2-25] | 0.005 µM
CC(=O)Nc1ncc(CN2C[C@@H](Cc3ncc(F)cn3)C[C@H]2C)s1 (single isomer, unassigned) [Example 2-19] | 0.001 µM
CC(=O)Nc1ncc(CN2CC[C@@H](Cc3ncc(F)cn3)C2)s1 (single isomer, unassigned) [Example 2-2] | 0.114 µM
COc1cnc(CC2CCCN(Cc3cnc(NC(C)=O)s3)C2)nc1 (stereo not shown) [Example 2-4, N-(5-((3-((5-methoxypyrimidin-2-yl)methyl)piperidin-1-yl)methyl)thiazol-2-yl)acetamide] | 0.002 µM
CC(=O)Nc1ncc(CN2CCCC(Cc3ccc(C)cn3)C2)s1 (stereo not shown) [Example 1-31, N-(5-((3-((5-methylpyridin-2-yl)methyl)piperidin-1-yl)methyl)thiazol-2-yl)acetamide] | 0.005 µM
CC(=O)Nc1nc(F)c(CN2CCC(C(C)c3ncc(F)cn3)C2)s1 (stereo not shown) [Example 2-51, N-(4-fluoro-5-((3-(1-(5-fluoropyrimidin-2-yl)ethyl)pyrrolidin-1-yl)methyl)thiazol-2-yl)acetamide] | 0.001 µM
CC(=O)Nc1ncc(CN2CCC(Cc3cncc(F)c3)C2)s1 (stereo not shown) [Example 1-24, N-(5-((3-((5-fluoropyridin-3-yl)methyl)pyrrolidin-1-yl)methyl)thiazol-2-yl)acetamide] | 0.031 µM
CC(=O)Nc1ncc(CN2CCCC(Cc3cc(C)ccn3)C2)s1 (stereo not shown) [Example 1-45, N-(5-((3-((4-methylpyridin-2-yl)methyl)piperidin-1-yl)methyl)thiazol-2-yl)acetamide] | 0.024 µM
CC(=O)Nc1ncc(CN2CCC(Cc3ccc(F)cc3)C2)s1 (stereo not shown) [Example 1-17, N-(5-((3-(4-fluorobenzyl)pyrrolidin-1-yl)methyl)thiazol-2-yl)acetamide] | 0.18 µM
CC(=O)Nc1ncc(CN2CCCC(Cc3cscn3)C2)s1 (stereo not shown) [Example 1-38, N-(5-((3-(thiazol-4-ylmethyl)piperidin-1-yl)methyl)thiazol-2-yl)acetamide] | 0.031 µM
CC(=O)Nc1ncc(CN2CCCC(Cc3ncccc3C(F)(F)F)C2)s1 (stereo not shown) [Example 1-46, N-(5-((3-((3-(trifluoromethyl)pyridin-2-yl)methyl)piperidin-1-yl)methyl)thiazol-2-yl)acetamide] | 0.025 µM
CC(=O)Nc1ncc(CN2CCCC(Cc3ccc(F)cc3)C2)s1 (stereo not shown) [Example 1-1, N-(5-((3-(4-fluorobenzyl)piperidin-1-yl)methyl)thiazol-2-yl)acetamide] | 0.06 µM
CCc1cc2c(CC3CCCN(Cc4cnc(NC(C)=O)s4)C3)ncnc2s1 (stereo not shown) [Example 1-41, N-(5-((3-((6-ethylthieno[2,3-d]pyrimidin-4-yl)methyl)piperidin-1-yl)methyl)thiazol-2-yl)acetamide] | 0.001 µM
CC(=O)Nc1ncc(CN2CCC[C@@H]([C@H](C)c3ncc(F)cn3)C2)s1 (single isomer, unassigned) [Example 2-30] | 0.032 µM
CC(=O)Nc1ncc(CN2CCCC(Cc3cc(F)ccn3)C2)s1 (stereo not shown) [Example 1-13, N-(5-((3-((4-fluoropyridin-2-yl)methyl)piperidin-1-yl)methyl)thiazol-2-yl)acetamide] | 0.142 µM
CC(=O)Nc1ncc(CN2CCC[C@H](Cc3ncc(C(F)(F)F)cn3)C2)s1 [Example 2-9, (R)-N-(5-((3-((5-(trifluoromethyl)pyrimidin-2-yl)methyl)piperidin-1-yl)methyl)thiazol-2-yl)acetamide] | 0.03 µM
CC(=O)Nc1ncc(CN2CCCC(Cc3nccs3)C2)s1 (stereo not shown) [Example 1-39, N-(5-((3-(thiazol-2-ylmethyl)piperidin-1-yl)methyl)thiazol-2-yl)acetamide] | 0.011 µM
COc1nc(C[C@H]2CCCN(Cc3cnc(NC(C)=O)s3)C2)ncc1F [Example 2-6, (R)-N-(5-((3-((5-fluoro-4-methoxypyrimidin-2-yl)methyl)piperidin-1-yl)methyl)thiazol-2-yl)acetamide] | 0.008 µM
COc1ccnc(CC2CCCN(Cc3cnc(NC(C)=O)s3)C2)c1 (stereo not shown) [Example 1-9, N-(5-((3-((4-methoxypyridin-2-yl)methyl)piperidin-1-yl)methyl)thiazol-2-yl)acetamide] | 0.012 µM

Continued, values first:

IC50 | SMILES
0.01 µM | CC(=O)Nc1nc(F)c(CN2CC[C@H](Cc3cc(C)nc(C)n3)C2)s1 [Example 3-29, (R)-N-(5-((3-((2,6-dimethylpyrimidin-4-yl)methyl)pyrrolidin-1-yl)methyl)-4-fluorothiazol-2-yl)acetamide]
0.077 µM | CC(=O)Nc1nc(F)c(CN2CC[C@@H](Cc3ncc(F)cn3)C2)s1 [Example 3-36, (S)—N-(4-fluoro-5-((3-((5-fluoropyrimidin-2-yl)methyl)pyrrolidin-1-yl)methyl)thiazol-2-yl)acetamide]
0.014 µM | COc1cc(C[C@H]2CCN(Cc3sc(NC(C)=O)nc3F)C2)ncn1 [Example 3-31, (R)-N-(4-fluoro-5-((3-((6-methoxypyrimidin-4-yl)methyl)pyrrolidin-1-yl)methyl)thiazol-2-yl)acetamide]
0.0062 µM | CC(=O)Nc1nc(F)c(CN2CC[C@H](Cc3ncc(F)cn3)C2)s1 [Example 3-26, (R)-N-(4-fluoro-5-((3-((5-fluoropyrimidin-2-yl)methyl)pyrrolidin-1-yl)methyl)thiazol-2-yl)acetamide]
0.014 µM | CC(=O)Nc1ncc(CN2CC[C@H](Cc3ncc(C)cn3)C2)s1 [Example 3-13, (R)-N-(5-((3-((5-methylpyrimidin-2-yl)methyl)pyrrolidin-1-yl)methyl)thiazol-2-yl)acetamide]
0.66 µM | CC(=O)Nc1ncc(CN2CCCC(Cn3cc(C4CCC4)cn3)C2)s1 (stereo not shown) [Example 4-5, N-(5-((3-((4-cyclobutyl-1H-pyrazol-1-yl)methyl)piperidin-1-yl)methyl)thiazol-2-yl)acetamide]
0.056 µM | CC(=O)Nc1ncc(CN2CC[C@H](Cc3ccc(F)c(F)c3)C2)s1 (stereo in doubt) [Example 4-26, N-(5-((3-(3,4-difluorobenzyl)pyrrolidin-1-yl)methyl)thiazol-2-yl)acetamide]
0.0048 µM | CC(=O)Nc1nc(F)c(CN2CC[C@H](Cc3ccnc(C)c3)C2)s1 [Example 3-33, (S)—N-(4-fluoro-5-((3-((2-methylpyridin-4-yl)methyl)pyrrolidin-1-yl)methyl)thiazol-2-yl)acetamide]
0.92 µM | CC(=O)Nc1ncc(CN2CC(Cc3ncc(F)cn3)C(F)(F)C2)s1 (stereo not shown) [Example 3-3, N-(5-((3,3-difluoro-4-((5-fluoropyrimidin-2-yl)methyl)pyrrolidin-1-yl)methyl)thiazol-2-yl)acetamide]
< 0.001 µM | COc1cc(C[C@H]2C[C@H](C)N(Cc3sc(NC(C)=O)nc3F)C2)ncn1 [Example 3-46, N-(4-fluoro-5-(((2S,4R)-4-((6-methoxypyrimidin-4-yl)methyl)-2-methylpyrrolidin-1-yl)methyl)thiazol-2-yl)acetamide]
0.0093 µM | CC(=O)Nc1ncc(CN2CCCC(Cc3noc(C)n3)C2)s1 (stereo not shown) [Example 4-19, N-(5-((3-((5-methyl-1,2,4-oxadiazol-3-yl)methyl)piperidin-1-yl)methyl)thiazol-2-yl)acetamide]
0.055 µM | CC(=O)Nc1ncc(CN2CCCC(Cn3ccnn3)C2)s1 (stereo not shown) [Example 4-20, N-(5-((3-((1H-1,2,3-triazol-1-yl)methyl)piperidin-1-yl)methyl)thiazol-2-yl)acetamide]
0.15 µM | CC(=O)Nc1nc(F)c(CN2C[C@H](Cc3ncc(F)cn3)C[C@@H]2C)s1 [Example 3-40, N-(4-fluoro-5-(((2S,4S)-4-((5-fluoropyrimidin-2-yl)methyl)-2-methylpyrrolidin-1-yl)methyl)thiazol-2-yl)acetamide]
0.087 µM | COc1cc(C[C@@H]2C[C@@H](C)N(Cc3sc(NC(C)=O)nc3F)C2)ncn1 [Example 3-43, N-(4-fluoro-5-(((2R,4S)-4-((6-methoxypyrimidin-4-yl)methyl)-2-methylpyrrolidin-1-yl)methyl)thiazol-2-yl)acetamide]
